IC50 and Selectivity data for 46 compounds are collected here from ChEMBL document CHEMBL1129583, “Nonclassical 2,4-diamino-8-deazafolate analogues as inhibitors of dihydrofolate reductases from rat liver, Pneumocystis carinii, and Toxoplasma gondii” (J Med Chem, 1996).

The target in one experiment is T1, Dihydrofolate reductase (Rattus norvegicus, UniProt Q920D2).
T1 sequence (Q920D2 whole entry): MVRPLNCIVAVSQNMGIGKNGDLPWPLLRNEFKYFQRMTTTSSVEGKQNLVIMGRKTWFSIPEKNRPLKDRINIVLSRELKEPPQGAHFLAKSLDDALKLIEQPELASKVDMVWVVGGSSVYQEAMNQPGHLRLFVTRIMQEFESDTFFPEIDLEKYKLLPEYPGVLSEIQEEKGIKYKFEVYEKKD

Experiment [1] addresses T2, Bifunctional dihydrofolate reductase-thymidylate synthase (Toxoplasma gondii, UniProt Q07422).
T2 sequence (Q07422 whole entry): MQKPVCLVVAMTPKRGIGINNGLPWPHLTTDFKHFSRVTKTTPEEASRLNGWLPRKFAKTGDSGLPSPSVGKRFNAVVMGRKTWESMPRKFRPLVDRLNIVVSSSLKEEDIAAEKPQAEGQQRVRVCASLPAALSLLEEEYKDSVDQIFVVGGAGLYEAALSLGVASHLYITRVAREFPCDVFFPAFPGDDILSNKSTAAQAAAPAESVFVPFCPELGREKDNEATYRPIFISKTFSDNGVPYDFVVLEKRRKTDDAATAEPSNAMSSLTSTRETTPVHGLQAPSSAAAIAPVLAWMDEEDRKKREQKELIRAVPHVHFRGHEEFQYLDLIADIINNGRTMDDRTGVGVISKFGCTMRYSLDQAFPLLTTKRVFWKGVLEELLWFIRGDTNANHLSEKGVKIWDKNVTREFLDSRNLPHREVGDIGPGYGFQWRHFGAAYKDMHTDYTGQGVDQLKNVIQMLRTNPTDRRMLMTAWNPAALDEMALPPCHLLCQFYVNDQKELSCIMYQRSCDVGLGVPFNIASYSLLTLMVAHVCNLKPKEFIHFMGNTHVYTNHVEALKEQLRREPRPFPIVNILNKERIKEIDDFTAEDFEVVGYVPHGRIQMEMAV
Description: Inhibitory activity against Toxoplasma gondii dihydrofolate reductase.

The next experiment has as its system Pneumocystis carinii. As to the kind of experiment: Ratio of inhibitory concentration of rat liver and Pneumocystis carinii DHFR.
Experiment [2] is described as follows: Ratio of inhibitory concentration of Rat liver and Toxoplasma gondii DHFR.
Experiment [3] is described as follows: Ratio of inhibitory concentration of Rat liver and Pneumocystis carinii DHFR.
Experiment [4] is described as follows: pRatio of inhibitory concentration of Rat liver and Pneumocystis carinii DHFR.

One may read the IC50 as the concentration that gives 50% inhibition. Lower therefore signals higher potency.

As to `CN(Cc1ccc2nc(N)nc(N)c2n1)c1ccc(C(=O)C(F)(F)F)cc1`, the IC50 against Dihydrofolate reductase stood at 32 nM; in experiment [1], 46 nM. For the same compound, the Selectivity with Pneumocystis carinii was found to be 0.13.

Take `COc1ccccc1NCc1ccc2nc(N)nc(N)c2n1`: the IC50 at Dihydrofolate reductase is 420 nM; in experiment [1] it was 120 nM. For the same compound, in the experiment with Pneumocystis carinii, the Selectivity was found to be 0.16.

On to `CN(Cc1ccc2nc(N)nc(N)c2n1)c1cc(Cl)c(Cl)c(Cl)c1`, for which the IC50 is 87 nM on Dihydrofolate reductase and 38 nM in experiment [1]. For the same compound, the Selectivity in the experiment with Pneumocystis carinii was 0.35.

For `COc1ccccc1N(C)Cc1ccc2nc(N)nc(N)c2n1`, the IC50 at Dihydrofolate reductase turned out to be 120 nM; in experiment [1] it was 26 nM. Further, the Selectivity with Pneumocystis carinii turned out to be 0.24.

`C#CCN(Cc1ccc2nc(N)nc(N)c2n1)c1ccc(C(=O)C(F)(F)F)cc1`: the IC50 against Dihydrofolate reductase was 7.5 nM; in experiment [1], 54 nM. In addition, the Selectivity in the experiment with Pneumocystis carinii amounted to 0.06.

On to `CC(=O)c1ccc(NCc2ccc3nc(N)nc(N)c3n2)cc1`, for which the IC50 stood at 2.5 nM on Dihydrofolate reductase and 27 nM in experiment [1]. Also, the Selectivity in the experiment with Pneumocystis carinii came out at 0.01.

For `COc1ccc(SCc2cnc3nc(N)nc(N)c3c2C)cc1`, the figures for the IC50 (on Dihydrofolate reductase; in experiment [1]) were 520 nM and 63 nM, respectively. Further, in the experiment on Pneumocystis carinii, the Selectivity was 0.93.

Regarding `Nc1nc(N)c2nc(CNc3ccccc3Cl)ccc2n1`, the results for the IC50 (against Dihydrofolate reductase; in experiment [1]) were 140 nM and 110 nM, respectively. The Selectivity in the experiment with Pneumocystis carinii amounted to 0.26.

Take `Nc1nc(N)c2nc(CSc3ccccc3)ccc2n1`: the IC50 against Dihydrofolate reductase is 520 nM; in experiment [1], 130 nM. Moreover, the Selectivity with Pneumocystis carinii amounted to 0.26.

For the compound `Nc1nc(N)c2nc(CNc3cccc4ccccc34)ccc2n1`, the IC50 against Dihydrofolate reductase stood at 40 nM; in experiment [1], 26 nM. For the same compound, the values for the Selectivity in experiment [2] and in experiment [3] were 1.54 and 0.17, respectively.

Consider `COc1ccc(N(C)Cc2ccc3nc(N)nc(N)c3n2)c(OC)c1`, for which the IC50 against Dihydrofolate reductase came to 16 nM; in experiment [1] it was 14 nM. Further, the Selectivity with Pneumocystis carinii came out at 0.1.

For the compound `CC(=O)c1ccc(N(C)Cc2ccc3nc(N)nc(N)c3n2)cc1`, the IC50 turned out to be 5.1 nM against Dihydrofolate reductase and 15 nM in experiment [1]. The Selectivity with Pneumocystis carinii is 0.04.

Take `COc1ccc(NCc2ccc3nc(N)nc(N)c3n2)cc1`: the figures for the IC50 (on Dihydrofolate reductase; in experiment [1]) were 73 nM and 54 nM, respectively. Besides, in the experiment on Pneumocystis carinii, the Selectivity is 0.09.

Regarding `COc1ccc(N(C)Cc2ccc3nc(N)nc(N)c3n2)cc1`, the results for the half-maximal inhibitory concentration (IC50) (against Dihydrofolate reductase; in experiment [1]) were 18 nM and 16 nM, respectively. Besides, in the experiment with Pneumocystis carinii, the Selectivity is 0.072.

`Nc1nc(N)c2nc(CNc3ccccc3)ccc2n1`: the IC50 against Dihydrofolate reductase came out at 260 nM; in experiment [1], 85 nM. In the experiment with Pneumocystis carinii, the Selectivity was 0.15.

On to `COc1ccc(NCc2ccc3nc(N)nc(N)c3n2)cc1OC`, for which the IC50 against Dihydrofolate reductase stood at 60 nM; in experiment [1], 90 nM. Also, in the experiment on Pneumocystis carinii, the Selectivity worked out at 0.07.

Turning to `CN(Cc1ccc2nc(N)nc(N)c2n1)c1ccc(Cl)cc1Cl`, the IC50 against Dihydrofolate reductase turned out to be 58 nM; in experiment [1], 50 nM. The Selectivity with Pneumocystis carinii stood at 0.12.

Consider `COc1ccc(N(C)Cc2ccc3nc(N)nc(N)c3n2)cc1OC`, for which the values for the IC50 (against Dihydrofolate reductase; in experiment [1]) were 2.7 nM and 9.8 nM, respectively. Moreover, in the experiment on Pneumocystis carinii, the Selectivity was determined as 0.02.

In the case of `Nc1nc(N)c2nc(CNc3ccc4ccccc4c3)ccc2n1`, the figures for the IC50 (on Dihydrofolate reductase; in experiment [1]) were 210 nM and 160 nM, respectively. Besides, the Selectivity in experiment [2] came out at 1.31; in experiment [3], 0.13.

On to `Nc1nc(N)c2nc(CNc3cccc(Cl)c3)ccc2n1`, for which the results for the IC50 (on Dihydrofolate reductase; in experiment [1]) were 140 nM and 130 nM, respectively. Besides, the Selectivity in the experiment on Pneumocystis carinii was determined as 0.07.

With `CN(Cc1ccc2nc(N)nc(N)c2n1)c1ccc(Cl)c(Cl)c1`, the values for the IC50 (at Dihydrofolate reductase; in experiment [1]) were 17 nM and 27 nM, respectively. Besides, the Selectivity with Pneumocystis carinii amounted to 0.45.

For the compound `Nc1nc(N)c2nc(CNc3cc(Cl)ccc3Cl)ccc2n1`, the IC50 on Dihydrofolate reductase came out at 200 nM; in experiment [1] it was 91 nM. Besides, the Selectivity in the experiment on Pneumocystis carinii amounted to 0.13.

For `COc1cccc(NCc2ccc3nc(N)nc(N)c3n2)c1`, the IC50 is 200 nM on Dihydrofolate reductase and 100 nM in experiment [1]. The Selectivity with Pneumocystis carinii worked out at 0.12.

Take `COc1cccc(N(C)Cc2ccc3nc(N)nc(N)c3n2)c1`: the IC50 worked out at 35 nM on Dihydrofolate reductase and 15 nM in experiment [1]. The Selectivity in the experiment on Pneumocystis carinii came out at 0.36.

For `COc1ccc(OC)c(N(C)Cc2ccc3nc(N)nc(N)c3n2)c1`, the IC50 at Dihydrofolate reductase is 50 nM; in experiment [1], 25 nM. The Selectivity with Pneumocystis carinii was 0.24.

Consider `COc1ccc(NCc2ccc3nc(N)nc(N)c3n2)c(OC)c1`, for which the values for the concentration for half-maximal inhibition (IC50) (against Dihydrofolate reductase; in experiment [1]) were 320 nM and 140 nM, respectively. Besides, the Selectivity in the experiment on Pneumocystis carinii was 0.06.

Consider `CN(Cc1ccc2nc(N)nc(N)c2n1)c1c(Cl)cccc1Cl`, for which the IC50 against Dihydrofolate reductase turned out to be 48 nM; in experiment [1], 30 nM. The Selectivity in the experiment with Pneumocystis carinii worked out at 0.28.

In the case of `CN(Cc1ccc2nc(N)nc(N)c2n1)c1ccccc1Cl`, the IC50 was 120 nM against Dihydrofolate reductase and 15 nM in experiment [1]. Further, the Selectivity in the experiment on Pneumocystis carinii turned out to be 0.57.

Turning to `COc1ccc(OC)c(NCc2ccc3nc(N)nc(N)c3n2)c1`, the IC50 against Dihydrofolate reductase is 280 nM; in experiment [1] it was 120 nM. Moreover, the Selectivity with Pneumocystis carinii was determined as 0.06.

Turning to `C#CCN(Cc1ccc2nc(N)nc(N)c2n1)c1ccc(C(C)=O)cc1`, the IC50 against Dihydrofolate reductase was 15 nM; in experiment [1], 20 nM. Moreover, the Selectivity with Pneumocystis carinii is 0.07.

With `Nc1nc(N)c2nc(CSc3cccc4ccccc34)ccc2n1`, the IC50 against Dihydrofolate reductase turned out to be 160 nM; in experiment [1], 49 nM. In the experiment with Pneumocystis carinii, the Selectivity stood at 0.34.

Turning to `Nc1nc(N)c2nc(CSc3ccccc3)cnc2n1`, the results for the IC50 (on Dihydrofolate reductase; in experiment [1]) were 246000 nM and 770 nM, respectively. Besides, the Selectivity with Pneumocystis carinii was 25.9.

As for `CN(Cc1ccc2nc(N)nc(N)c2n1)c1cccc(Cl)c1`, the Selectivity in the experiment on Pneumocystis carinii is 0.032.

As to `Nc1nc(N)c2nc(CNc3cc(Cl)c(Cl)c(Cl)c3)ccc2n1`, the IC50 on Dihydrofolate reductase was determined as 44 nM; in experiment [1], 87 nM. The Selectivity in the experiment on Pneumocystis carinii amounted to 0.07.

Regarding `COc1cc(N(C)Cc2ccc3nc(N)nc(N)c3n2)cc(OC)c1OC`, the Selectivity in the experiment with Pneumocystis carinii came out at 0.2.

As to `Nc1nc(N)c2nc(CNc3c(Cl)cc(Cl)cc3Cl)ccc2n1`, the IC50 on Dihydrofolate reductase was 570 nM; in experiment [1] it was 46 nM. Besides, the Selectivity in the experiment on Pneumocystis carinii was 0.29.

With `CN(Cc1ccc2nc(N)nc(N)c2n1)c1cc(Cl)ccc1Cl`, the IC50 came to 47 nM on Dihydrofolate reductase and 25 nM in experiment [1]. Besides, in the experiment on Pneumocystis carinii, the Selectivity stood at 0.31.

As for `CN(Cc1ccc2nc(N)nc(N)c2n1)c1ccc2ccccc2c1`, the values for the IC50 (at Dihydrofolate reductase; in experiment [1]) were 7.2 nM and 16 nM, respectively. For the same compound, the Selectivity in the experiment with Pneumocystis carinii was 0.14.

`COc1cc(NCc2ccc3nc(N)nc(N)c3n2)cc(OC)c1OC`: the IC50 stood at 200 nM against Dihydrofolate reductase and 40 nM in experiment [1]. For the same compound, in the experiment with Pneumocystis carinii, the Selectivity was 0.1.

In the case of `CN(Cc1ccc2nc(N)nc(N)c2n1)c1c(Cl)cc(Cl)cc1Cl`, the IC50 on Dihydrofolate reductase was determined as 52 nM; in experiment [1], 44 nM. Further, the Selectivity in the experiment with Pneumocystis carinii was 0.43.

For the compound `CN(Cc1ccc2nc(N)nc(N)c2n1)c1ccccc1`, the figures for the IC50 (against Dihydrofolate reductase; in experiment [1]) were 24 nM and 8.4 nM, respectively. Also, in the experiment with Pneumocystis carinii, the Selectivity stood at 0.08.

In the case of `Nc1nc(N)c2nc(CNc3ccc(Cl)cc3Cl)ccc2n1`, the IC50 against Dihydrofolate reductase turned out to be 88 nM; in experiment [1], 50 nM. In addition, the Selectivity with Pneumocystis carinii is 0.12.

As for `Nc1nc(N)c2nc(CNc3ccc(Cl)c(Cl)c3)ccc2n1`, the values for the half-inhibitory concentration (IC50) (against Dihydrofolate reductase; in experiment [1]) were 54 nM and 57 nM, respectively. Besides, the Selectivity in the experiment on Pneumocystis carinii amounted to 0.13.

Take `CN(Cc1ccc2nc(N)nc(N)c2n1)c1cccc2ccccc12`: the IC50 was determined as 7.3 nM against Dihydrofolate reductase and 18 nM in experiment [1]. The Selectivity with Pneumocystis carinii turned out to be 0.18.

Consider `Nc1nc(N)c2nc(CSc3ccc4ccccc4c3)ccc2n1`, for which the half-inhibitory concentration (IC50) was determined as 86 nM at Dihydrofolate reductase and 48 nM in experiment [1]. In the experiment on Pneumocystis carinii, the Selectivity stood at 0.23.

On to `Nc1nc(N)c2nc(CNc3c(Cl)cccc3Cl)ccc2n1`, for which the IC50 on Dihydrofolate reductase was found to be 82 nM; in experiment [1] it was 28 nM. In experiment [4], the Selectivity was 0.082.
